Laboratory results: patent publication US11660291B2, “IL-8 inhibitors for use in the treatment of some sarcomas” (Dompe' Farmaceutici S.P.A., priority 2017, dated 2023)
“Also recorded” adds a separate entry of the source.

Assays:
pFAK = assay: PD analysis in lung tissue, IHC for pFAK; type: in vivo, mouse
Procedure: Mice treated with injections of either DF2156A or sc144 daily were euthanized 24 hours subsequent to their 14th dose of drug. Lungs harvested from those mice were processed using standard FFPE, then sectioned and stained with IHC for either pFAK (downstream of IL-8) or pSTAT3 (downstream of IL-6).
To evaluate the functional importance of IL-6 and IL-8 pathways to OS lung metastasis, the present inventors used the xenograft models. Balb-SCID mice inoculated via tail vein with 1×10^6 luciferase-labeled OS-17 cells received treatment with sc144 (the gp130 inhibitor), DF2156A (the CXCR1/2 inhibitor), or both. Mice continued to receive treatment for 42 days, after which treatment stopped. Intravital imaging for in vivo assessment of tumor burden was performed at 14 and 24 days using standard bioluminescent techniques. […] Two mice from each single-agent treatment group were euthanized 24 hours after the 14th dose of drug to perform pharmacodynamics (PD) assessment of target inhibition.

OS-17 cells = assay: Transwell migration and invasion assays, serum as chemoattractant, small molecule inhibitors; type: cell-based, human; conditions: 24 hours
Procedure: OS cells were cultured on a transwell chamber membrane, then subjected transferred to a chamber containing RPMI with 2.5% FBS (pos ctl) or RPMI alone (neg ctl). Other wells containing 2.5% FBS in the bottom chamber were treated with 1 uM sc144, 10 nM D[…], or both. After 24 hours, top chambers were scraped clean, membranes stained and cells counted. Transwell migration and invasion assays. 1×10^4 OS cells were plated into transwell inserts (either Falcon #353097 for migration or Corning #354483 for Matrigel invasion assays) containing appropriate chemotactic factors. After 24 hours of incubation, transwells were drained and upper chambers/membrane upper surfaces scraped using a polyester swab. Membranes were stained using a Dif-Quik Stain Set (Siemens #B4132-1A) and dried, then imaged on an inverted microscope. Cells were quantified using Adobe Photoshop counting tools. For experiments involving IL-6 and IL-8 chemotaxis, media contained 1% FBS in both chambers, with recombinant protein added to the bottom chamber to make 50 ng/ml IL6 (BioLegend #570804) or 100 ng/ml IL-8 (BioLegend #574204). For experiments using serum as a chemoattractant, top chambers contained RPMI only, while bottom chambers contained 1% or 2.5% serum. Where noted, 20 ug/ml of neutralizing antibodies to either IL6 (Abcam #AB6672), IL-8 (Abcam #AB18672), or both were added to both upper and lower chambers. […]

SMILES: C[C@@H](C(=O)NS(C)(=O)=O)c1ccc(OS(=O)(=O)C(F)(F)F)cc1 [DF2156A]
- pFAK IHC staining in lung (target inhibition, downstream of IL-8) (pFAK; 24 hours after the 14th daily dose (dosing trough)): sustained target inhibition; also recorded: reduced the amount of activation seen
- number of infiltrating cells in lung (pFAK; 24 hours after the 14th daily dose (trough concentrations)): reduced
- directional migration and invasion (OS-17 cells; serum (2.5% FBS) as chemoattractant, 1 uM sc144, 10 nM DF2156A (FIG. 2)): suffices to prevent directional migration and invasion
- amount of migration of OS cells (OS-17 cells; serum as chemoattractant, transwell): significantly decreased the amount of migration
